{"source": "BindingDB's records for doi:10.1016/j.bioorg.2015.09.004", "about": "(Universiti Teknologi Mara, 2015)", "target": "Alpha-glucosidase MAL12 (Saccharomyces cerevisiae (strain ATCC 204508 / S288c), UniProt P53341)", "sequence (P53341 whole entry)": "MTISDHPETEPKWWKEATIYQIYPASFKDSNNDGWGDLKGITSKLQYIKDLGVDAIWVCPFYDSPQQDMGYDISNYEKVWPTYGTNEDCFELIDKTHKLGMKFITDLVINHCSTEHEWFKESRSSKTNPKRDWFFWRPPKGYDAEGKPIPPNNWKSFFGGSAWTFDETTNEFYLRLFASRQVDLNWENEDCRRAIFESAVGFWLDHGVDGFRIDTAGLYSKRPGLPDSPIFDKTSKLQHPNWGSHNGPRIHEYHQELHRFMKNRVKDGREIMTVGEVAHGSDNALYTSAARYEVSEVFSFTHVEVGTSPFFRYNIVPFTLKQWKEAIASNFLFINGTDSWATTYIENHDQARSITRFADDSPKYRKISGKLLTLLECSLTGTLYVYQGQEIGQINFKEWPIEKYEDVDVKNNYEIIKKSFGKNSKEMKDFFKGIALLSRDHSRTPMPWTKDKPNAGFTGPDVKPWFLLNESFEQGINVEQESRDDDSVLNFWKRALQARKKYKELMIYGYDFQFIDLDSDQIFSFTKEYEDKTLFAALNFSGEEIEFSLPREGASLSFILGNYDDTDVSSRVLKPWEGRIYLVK", "assay": "Baker's Yeast alpha-Glucosidase Inhibition Assay", "settings": "pH 6.8; 37 °C", "procedure": "The enzyme inhibition was evaluated according to the method previously reported by Taha et al. with slight modification. Various concentration of test compounds (10 uL) were dissolved in DMSO (ranging from 200 to 6.25 ug/mL) and premixed with 95 uL of 50 mM phosphate buffer (pH 6.8). Then, 25 uL of enzyme (0.0625 U/mL) in phosphate buffer saline was added into each well and the plate was incubated at 37 °C for 10 min. Afterward, 25 uL of PNPG in phosphate buffer saline (5 mM) were added and pre-read of the plate was taken by using a microplate reader (Spectrostar Nano BMG Labtech, Germany). The reaction mixture was then incubated at 37 °C for 30 min and change in absorbance at 405 nm was monitored up to 30 min. For negative control, the test samples were replaced with 10 uL of DMSO and acarbose was used as positive control. All experiments were triplicated and the results were expressed as the mean +/- S.E.M of three determinations.", "data": [{"compound": "O=c1oc2ccccc2c(O)c1C(c1ccc(NC(=S)Nc2ccccc2Br)cc1)c1c(O)c2ccccc2oc1=O", "note": "[1-(4-(bis(4-Hydroxy-2-oxo-2H-chromen-3-yl)methyl)phenyl)-3-(2-bromophenyl)-thiourea (1)]", "values": [{"measurement": "IC50", "result": 37.4, "unit": "µM"}]}, {"compound": "O=c1oc2ccccc2c(O)c1C(c1ccc(NC(=S)Nc2ccccc2F)cc1)c1c(O)c2ccccc2oc1=O", "note": "[1-(4-(bis(4-Hydroxy-2-oxo-2H-chromen-3-yl)methyl)phenyl)-3-(2-fluorophenyl)-thiourea (7)]", "values": [{"measurement": "IC50", "result": 91.3, "unit": "µM"}]}, {"compound": "O=c1oc2ccccc2c(O)c1C(c1ccc(NC(=S)Nc2cccc(Br)c2)cc1)c1c(O)c2ccccc2oc1=O", "note": "[1-(4-(bis(4-Hydroxy-2-oxo-2H-chromen-3-yl)methyl)phenyl)-3-(3-bromophenyl)-thiourea (2)]", "values": [{"measurement": "IC50", "result": 35.9, "unit": "µM"}]}, {"compound": "O=c1oc2ccccc2c(O)c1C(c1ccc(NC(=S)Nc2cccc(F)c2)cc1)c1c(O)c2ccccc2oc1=O", "note": "[1-(4-(bis(4-Hydroxy-2-oxo-2H-chromen-3-yl)methyl)phenyl)-3-(3-fluorophenyl)-thiourea (8)]", "values": [{"measurement": "IC50", "result": 55.1, "unit": "µM"}]}, {"compound": "O=c1oc2ccccc2c(O)c1C(c1ccc(NC(=S)Nc2cccc([N+](=O)[O-])c2)cc1)c1c(O)c2ccccc2oc1=O", "note": "[1-(4-(bis(4-Hydroxy-2-oxo-2H-chromen-3-yl)methyl)phenyl)-3-(3-nitrophenyl)-thiourea (17)]", "values": [{"measurement": "IC50", "result": 51, "unit": "µM"}]}, {"compound": "O=c1oc2ccccc2c(O)c1C(c1ccc(NC(=S)Nc2ccc(Br)cc2)cc1)c1c(O)c2ccccc2oc1=O", "note": "[1-(4-(bis(4-Hydroxy-2-oxo-2H-chromen-3-yl)methyl)phenyl)-3-(4-bromophenyl)-thiourea (3)]", "values": [{"measurement": "IC50", "result": 39, "unit": "µM"}]}, {"compound": "O=c1oc2ccccc2c(O)c1C(c1ccc(NC(=S)Nc2ccc(F)cc2)cc1)c1c(O)c2ccccc2oc1=O", "note": "[1-(4-(bis(4-Hydroxy-2-oxo-2H-chromen-3-yl)methyl)phenyl)-3-(4-fluorophenyl)-thiourea (9)]", "values": [{"measurement": "IC50", "result": 53.4, "unit": "µM"}]}, {"compound": "O=c1oc2ccccc2c(O)c1C(c1ccc(NC(=S)Nc2ccc([N+](=O)[O-])cc2)cc1)c1c(O)c2ccccc2oc1=O", "note": "[1-(4-(bis(4-Hydroxy-2-oxo-2H-chromen-3-yl)methyl)phenyl)-3-(4-nitrophenyl) thiourea (18)]", "values": [{"measurement": "IC50", "result": 24.7, "unit": "µM"}]}]}
